Assays:
MDA-MB-468 = experiment: Cytotoxicity against human MDA-MB-468 cells assessed as cell growth at 10 uM after 48 hrs by SRB assay relative to control; type: functional; conditions: MDA-MB-468, 48 h, read-out: Activity
BT-549 = experiment: Cytotoxicity against human BT549 cells assessed as cell growth at 10 uM after 48 hrs by SRB assay relative to control; type: functional; conditions: BT-549, 48 h, read-out: Activity
[1] = Cytotoxicity against human PC3 cells assessed as cell growth at 10 uM after 48 hrs by SRB assay relative to control; type: functional; conditions: PC-3, 48 h, read-out: Activity
CAKI-1 [2] = experiment: Cytotoxicity against human Caki1 cells assessed as cell growth at 10 uM after 48 hrs by SRB assay relative to control; type: functional; conditions: CAKI-1, 48 h, read-out: Activity
A498 = experiment: Cytotoxicity against human A498 cells assessed as cell growth at 10 uM after 48 hrs by SRB assay relative to control; type: functional; conditions: A498, 48 h, read-out: Activity
[3] = Cytotoxicity against human SKOV3 cells assessed as cell growth at 10 uM after 48 hrs by SRB assay relative to control; type: functional; conditions: SK-OV-3, 48 h, read-out: Activity
[4] = Cytotoxicity against human SKOV3 cells assessed as cell growth at 10^-4 M after 48 hrs by SRB assay relative to control; type: functional; conditions: SK-OV-3, 48 h, read-out: Activity
[5] = Cytotoxicity against human OVCAR4 cells assessed as cell growth at 10^-8 M after 48 hrs by SRB assay relative to control; type: functional; conditions: OVCAR-4, 48 h, read-out: Activity
CAKI-1 [6] = experiment: Cytotoxicity against human Caki1 cells assessed as cell growth at 10^-8 M after 48 hrs by SRB assay relative to control; type: functional; conditions: CAKI-1, 48 h, read-out: Activity
[7] = Cytotoxicity against human PC3 cells assessed as cell growth at 10^-8 M after 48 hrs by SRB assay relative to control; type: functional; conditions: PC-3, 48 h, read-out: Activity
[8] = Cytotoxicity against human UACC257 cells assessed as cell growth at 10 uM after 48 hrs by SRB assay relative to control; type: functional; conditions: UACC-257, 48 h, read-out: Activity
SK-MEL-5 = experiment: Cytotoxicity against human SK-MEL-5 cells assessed as cell growth at 10 uM after 48 hrs by SRB assay relative to control; type: functional; conditions: SK-MEL-5, 48 h, read-out: Activity
MDA-MB-435 = experiment: Cytotoxicity against human MDA-MB-435 cells assessed as cell growth at 10 uM after 48 hrs by SRB assay relative to control; type: functional; conditions: MDA-MB-435, 48 h, read-out: Activity
M14 = experiment: Cytotoxicity against human M14 cells assessed as cell growth at 10 uM after 48 hrs by SRB assay relative to control; type: functional; conditions: M14, 48 h, read-out: Activity
Malme-3M = experiment: Cytotoxicity against human MALME-3M cells assessed as cell growth at 10 uM after 48 hrs by SRB assay relative to control; type: functional; conditions: read-out: Activity
U-251 = experiment: Cytotoxicity against human U251 cells assessed as cell growth at 10 uM after 48 hrs by SRB assay relative to control; type: functional; conditions: U-251, 48 h, read-out: Activity
LOX IMVI = experiment: Cytotoxicity against human LOXIMVI cells assessed as cell growth at 10 uM after 48 hrs by SRB assay relative to control; type: functional; conditions: read-out: Activity
SNB-75 = experiment: Cytotoxicity against human SNB75 cells assessed as cell growth at 10 uM after 48 hrs by SRB assay relative to control; type: functional; conditions: SNB-75, 48 h, read-out: Activity
SNB-19 = experiment: Cytotoxicity against human SNB19 cells assessed as cell growth at 10 uM after 48 hrs by SRB assay relative to control; type: functional; conditions: SNB-19, 48 h, read-out: Activity
KM12 = experiment: Cytotoxicity against human KM12 cells assessed as cell growth at 10 uM after 48 hrs by SRB assay relative to control; type: functional; conditions: KM12, 48 h, read-out: Activity
NCI-H522 = experiment: Cytotoxicity against human NCI-H522 cells assessed as cell growth at 10 uM after 48 hrs by SRB assay relative to control; type: functional; conditions: NCI-H522, 48 h, read-out: Activity
NCI-H322M = experiment: Cytotoxicity against human NCI-H322M cells assessed as cell growth at 10 uM after 48 hrs by SRB assay relative to control; type: functional; conditions: read-out: Activity
HOP-92 = experiment: Cytotoxicity against human HOP92 cells assessed as cell growth at 10 uM after 48 hrs by SRB assay relative to control; type: functional; conditions: HOP-92, 48 h, read-out: Activity
A549 = experiment: Cytotoxicity against human A549 cells assessed as cell growth at 10 uM after 48 hrs by SRB assay relative to control; type: functional; conditions: A549, 48 h, read-out: Activity
K562 = experiment: Cytotoxicity against human K562 cells assessed as cell growth at 10 uM after 48 hrs by SRB assay relative to control; type: functional; conditions: K562, 48 h, read-out: Activity
HL-60(TB) = experiment: Cytotoxicity against human HL-60(TB) cells assessed as cell growth at 10 uM after 48 hrs by SRB assay relative to control; type: functional; conditions: HL-60, 48 h, read-out: Activity
CCRF-CEM = experiment: Cytotoxicity against human CCRF-CEM cells assessed as cell growth at 10 uM after 48 hrs by SRB assay relative to control; type: functional; conditions: read-out: Activity
MDA-MB-231 [9] = experiment: Growth inhibition of human MDA-MB-231 cells after 72 hrs by MTT assay; type: functional, cell-based; conditions: MDA-MB-231, 72 h
[10] = Cytotoxicity against human HCT15 cells after 48 hrs by SRB assay; type: functional; conditions: HCT-15, 48 h; for CC50: read-out: LC50 (the source's name)
SW-620 = experiment: Cytotoxicity against human SW620 cells after 48 hrs by SRB assay; type: functional; conditions: SW-620, 48 h; for CC50: read-out: LC50 (the source's name)
NCI-H226 = experiment: Cytotoxicity against human NCI-H226 cells assessed as cell growth at 10^-6 M after 48 hrs by SRB assay relative to control; type: functional; conditions: NCI-H226, 48 h, read-out: Activity
[11] = Cytotoxicity against human OVCAR4 cells assessed as cell growth at 10^-6 M after 48 hrs by SRB assay relative to control; type: functional; conditions: OVCAR-4, 48 h, read-out: Activity
[12] = Cytotoxicity against human PC3 cells assessed as cell growth at 10^-6 M after 48 hrs by SRB assay relative to control; type: functional; conditions: PC-3, 48 h, read-out: Activity
MDA-MB-231 [13] = experiment: Antimigratory activity against human MDA-MB-231 cells after 24 hrs by wound-healing assay; type: functional, cell-based; conditions: MDA-MB-231, 24 h
SR = experiment: Cytotoxicity against human SR cells assessed as cell growth at 10 uM after 48 hrs by SRB assay relative to control; type: functional; conditions: read-out: Activity
DU-145 = experiment: Cytotoxicity against human DU145 cells assessed as cell growth at 10 uM after 48 hrs by SRB assay relative to control; type: functional; conditions: DU-145, 48 h, read-out: Activity
SF-268 = experiment: Cytotoxicity against human SF268 cells assessed as cell growth at 10 uM after 48 hrs by SRB assay relative to control; type: functional; conditions: SF-268, 48 h, read-out: Activity

SMILES	growth at 10 µM (MDA-MB-468)	growth at 10 µM (BT-549)	growth at 10 µM [1]	growth at 10 µM (CAKI-1 [2])	growth at 10 µM (A498)	growth at 10 µM [3]	growth at 100 µM [4]	growth at 0.01 µM [5]	growth at 0.01 µM (CAKI-1 [6])	growth at 0.01 µM [7]	growth at 10 µM [8]	growth at 10 µM (SK-MEL-5)	growth at 10 µM (MDA-MB-435)	growth at 10 µM (M14)	growth at 10 µM (Malme-3M)	growth at 10 µM (U-251)	growth at 10 µM (LOX IMVI)	growth at 10 µM (SNB-75)	growth at 10 µM (SNB-19)	growth at 10 µM (KM12)	also measured
COc1ccc(CCN2COc3c([C@@H](C)CCC=C(C)C)ccc(C)c3C2)cc1OC	-70%	87.9%	-25%	8%	7%	59%	-60%	96%	94%	94%	3%	-96%	3%	-91%	-78%	-47%	-65%	61%	67%	-2%	growth at 10 µM (NCI-H522): 64.7%; growth at 10 µM (NCI-H322M): 5%; growth at 10 µM (HOP-92): -1.29%; growth at 10 µM (A549): 51%; growth at 10 µM (K562): 13.1%; growth at 10 µM (HL-60(TB)): 18%; growth at 10 µM (CCRF-CEM): 14%; IC50 (MDA-MB-231 [9]): 16.3 µM; GI50 [10]: 2.84 µM; TGI [10]: 10.4 µM; CC50 [10]: 38.2 µM; GI50 (SW-620): 1.91 µM; TGI (SW-620): 4.08 µM; CC50 (SW-620): 8.72 µM; growth at 1 µM (NCI-H226): 94%; growth at 1 µM [11]: 85%; growth at 1 µM [12]: 81%; IC50 (MDA-MB-231 [13]): 9.5 µM
CC(C)=CCC[C@H](C)c1ccc(C)c2c1OCN(CC1CCNCC1)C2	7.48%	55.8%	59.4%	80.2%	64%	87%	-94%	102%	101%	102%	24.6%	30%	14.7%	-95.4%	90%	-13%	-70.5%	62%	73%	38.4%	growth at 10 µM (SR): -8.52%; growth at 10 µM (DU-145): 93.9%; growth at 10 µM (SF-268): 93%; growth at 10 µM (NCI-H322M): 98%; growth at 10 µM (HOP-92): 12.3%; growth at 10 µM (A549): 54.1%; growth at 10 µM (K562): 0.57%; growth at 10 µM (HL-60(TB)): 13.8%; growth at 10 µM (CCRF-CEM): 26.7%; IC50 (MDA-MB-231 [9]): 14.9 µM; GI50 [10]: 6.51 µM; TGI [10]: 21.1 µM; CC50 [10]: 54 µM; GI50 (SW-620): 9.87 µM; TGI (SW-620): 23.1 µM; CC50 (SW-620): 53.5 µM; growth at 1 µM (NCI-H226): 101%; growth at 1 µM [11]: 101%; growth at 1 µM [12]: 103%; IC50 (MDA-MB-231 [13]): 8.1 µM

From ChEMBL document CHEMBL3390836, “Mannich- and LedererManasse-based analogues of the natural product S-(+)-curcuphenol as cancer proliferation and migration inhibitors” (Medchemcomm, 2012)
